In PubChem BioAssay (NCI):
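Interpolation was linear, between the two tested concentrations surrounding the appropriate level; five concentrations were tested over 48 hours in 96-well plates. Definition used: TGI = concentration required for complete inhibition of growth.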

Tests used:
Experiment in all cases: NCI-60 cell line screen, 48 h
K-562 leukemia = test system: K-562 leukemia
MALME-3M melanoma = test system: MALME-3M melanoma
UACC-257 melanoma = test system: UACC-257 melanoma
SK-MEL-2 melanoma = test system: SK-MEL-2 melanoma
ACHN renal = test system: ACHN renal
DMS 273 small cell lung = test system: DMS 273 small cell lung
OVCAR-8 ovarian = test system: OVCAR-8 ovarian
MOLT-4 leukemia = test system: MOLT-4 leukemia
SNB-75 CNS = test system: SNB-75 CNS
HCC-2998 colon = test system: HCC-2998 colon
XF 498 CNS = test system: XF 498 CNS
SN12C renal = test system: SN12C renal
HT29 colon = test system: HT29 colon
COLO 205 colon = test system: COLO 205 colon
A498 renal = test system: A498 renal
NCI-H460 lung = test system: NCI-H460 lung
SK-MEL-5 melanoma = test system: SK-MEL-5 melanoma
A549 NSCLC = test system: A549 NSCLC
OVCAR-4 ovarian = test system: OVCAR-4 ovarian
HL-60(TB) leukemia = test system: HL-60(TB) leukemia
LXFL 529 NSCLC = test system: LXFL 529 NSCLC
HOP-62 NSCLC = test system: HOP-62 NSCLC
SF-268 CNS = test system: SF-268 CNS
HCT-116 colon = test system: HCT-116 colon
NCI-H226 lung = test system: NCI-H226 lung
LOX IMVI melanoma = test system: LOX IMVI melanoma
IGROV1 ovarian = test system: IGROV1 ovarian
SR leukemia = test system: SR leukemia
SF-539 CNS = test system: SF-539 CNS
KM20L2 colon = test system: KM20L2 colon
RXF 393 renal = test system: RXF 393 renal
M14 melanoma = test system: M14 melanoma
CCRF-CEM leukemia = test system: CCRF-CEM leukemia
786-0 renal = test system: 786-0 renal
SW-620 colon = test system: SW-620 colon
EKVX NSCLC = test system: EKVX NSCLC
SNB-19 CNS = test system: SNB-19 CNS
TK-10 renal = test system: TK-10 renal
RPMI-8226 leukemia = test system: RPMI-8226 leukemia
OVCAR-3 ovarian = test system: OVCAR-3 ovarian
HCT-15 colon = test system: HCT-15 colon
UO-31 renal = test system: UO-31 renal
DMS 114 small cell lung = test system: DMS 114 small cell lung
SF-295 CNS = test system: SF-295 CNS
NCI-H23 lung = test system: NCI-H23 lung
SK-MEL-28 melanoma = test system: SK-MEL-28 melanoma
U251 CNS = test system: U251 CNS
DLD-1 colon = test system: DLD-1 colon
UACC-62 melanoma = test system: UACC-62 melanoma

Measured: TGI

CCOC(=O)C(C(CC(=O)OC)NC(=O)OCc1ccccc1)C1(C)OCCO1 (centres undefined)
> 100 µM: all assays above
